Results reported in article PMC10247784, “Physiological activation of human and mouse bitter taste receptors by bile acids” (Communications Biology, 2023).
Where “and” joins values, the source holds several entries; their conditions need not be identical. Identical values can stand only once.

Target: T1, human TAS2R4 (Homo sapiens, UniProt Q9NYW5)
T1 construct: expressed in transfected cells; host or cells: HEK293T-Gα16gust44
T1 sequence (Q9NYW5 1-299): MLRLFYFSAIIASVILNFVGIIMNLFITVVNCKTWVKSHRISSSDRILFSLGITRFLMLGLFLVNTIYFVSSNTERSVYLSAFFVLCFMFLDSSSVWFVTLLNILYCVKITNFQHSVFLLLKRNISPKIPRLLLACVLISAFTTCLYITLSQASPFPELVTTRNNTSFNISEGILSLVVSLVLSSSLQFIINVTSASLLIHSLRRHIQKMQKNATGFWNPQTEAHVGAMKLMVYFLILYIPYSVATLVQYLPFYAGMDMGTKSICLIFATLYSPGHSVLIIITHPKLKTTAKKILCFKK
Experiment: Calcium imaging assay (FLIPR), HEK293T-Gα16gust44 cells transfected with human TAS2R4
Format: cell-based
Summary of the method: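 Read-out is Fluo-4 fluorescence change (ΔF/F) after automated application of bile acids (DMSO stocks) to transiently transfected cells. Values are corrected for empty-vector cells and normalized to buffer. Dose-response from three independent experiments in duplicate; threshold concentration set at p < 0.01 versus mock.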

For C[C@H](CCC(=O)NCCS(=O)(=O)O)[C@H]1CC[C@H]2[C@@H]3CC[C@@H]4C[C@H](O)CC[C@]4(C)[C@H]3CC[C@]12C [Taurolithocholic Acid, taurolithocholic acid], the “Efficacy = maximal amplitude (ΔF/F)” value (TAS2R4, bile acids, mean) was 0.1385, the “Efficacy (maximal amplitude ΔF/F), individual data points” value (TAS2R4, bile acids, single replicates, listed as TLCA) was 0.1344 and 0.1516 and 0.119 and 0.1444 and 0.143 and the “RLU, fluorescence trace” value (Time (s) 0) was 0 RLU. For the same molecule, the “RLU, fluorescence trace” value (Time (s) 2) was -14.866 RLU, the “RLU, fluorescence trace” value (Time (s) 4) was -10.9022 RLU and the “RLU, fluorescence trace” value (Time (s) 6) was -0.9261 RLU. For the same molecule, the “RLU, fluorescence trace” value (Time (s) 8) was -7.834 RLU, the “RLU, fluorescence trace” value (Time (s) 12) was -12.8379 RLU and the “RLU, fluorescence trace” value (Time (s) 14) was 6.067 RLU. For the same molecule, the “RLU, fluorescence trace” value (Time (s) 16) was 3.969 RLU, the “RLU, fluorescence trace” value (Time (s) 18) was -13.8081 RLU and the “RLU, fluorescence trace” value (Time (s) 18.766 (TCA, TLCA: 18.782)) was -6.318 RLU. For the same molecule, the “RLU, fluorescence trace” value (Time (s) 20.781 (TCA, TLCA: 20.782)) was 0.7554 RLU, the “RLU, fluorescence trace” value (Time (s) 22.781 (TCA, TLCA: 22.782)) was 22.9324 RLU and the “RLU, fluorescence trace” value (Time (s) 24.781 (TCA, TLCA: 24.782)) was 4.9 RLU. For the same molecule, the “RLU, fluorescence trace” value (Time (s) 26.781 (TCA, TLCA: 26.782)) was 24.977 RLU, the “RLU, fluorescence trace” value (Time (s) 28.781 (TCA, TLCA: 28.782)) was 22.993 RLU and the “RLU, fluorescence trace” value (Time (s) 30.781 (TCA, TLCA: 30.782)) was 49.0114 RLU. For the same molecule, the “RLU, fluorescence trace” value (Time (s) 32.781 (TCA, TLCA: 32.782)) was 81.1426 RLU, the “RLU, fluorescence trace” value (Time (s) 34.781 (TCA, TLCA: 34.782)) was 109.126 RLU and the “RLU, fluorescence trace” value (Time (s) 36.781 (TCA, TLCA: 36.782)) was 126.942 RLU. For the same molecule, the “RLU, fluorescence trace” value (Time (s) 38.781 (TCA, TLCA: 38.782)) was 159.412 RLU, the “RLU, fluorescence trace” value (Time (s) 40.781 (TCA, TLCA: 40.782)) was 175 RLU and the “RLU, fluorescence trace” value (Time (s) 42.781 (TCA, TLCA: 42.782)) was 193.772 RLU. The “RLU, fluorescence trace” value (Time (s) 44.781 (TCA, TLCA: 44.782)) was 218.413 RLU, the “RLU, fluorescence trace” value (Time (s) 46.781 (TCA, TLCA: 46.782)) was 198.067 RLU and the “RLU, fluorescence trace” value (Time (s) 48.781 (TCA, TLCA: 48.782)) was 224.737 RLU. For the same molecule, the “RLU, fluorescence trace” value (Time (s) 50.781 (TCA, TLCA: 50.782)) was 242.508 RLU, the “RLU, fluorescence trace” value (Time (s) 52.781 (TCA, TLCA: 52.782)) was 256.995 RLU and the “RLU, fluorescence trace” value (Time (s) 54.781 (TCA, TLCA: 54.782)) was 227.079 RLU. The “RLU, fluorescence trace” value (Time (s) 56.781 (TCA, TLCA: 56.782)) was 225.961 RLU, the “RLU, fluorescence trace” value (Time (s) 58.781 (TCA, TLCA: 58.782)) was 271.056 RLU and the “RLU, fluorescence trace” value (Time (s) 60.781 (TCA, TLCA: 60.782)) was 261.6 RLU. The “RLU, fluorescence trace” value (Time (s) 62.781 (TCA, TLCA: 62.782)) was 251.574 RLU, the “RLU, fluorescence trace” value (Time (s) 64.781 (TCA, TLCA: 64.782)) was 292.569 RLU and the “RLU, fluorescence trace” value (Time (s) 66.781 (TCA, TLCA: 66.782)) was 280.396 RLU. The “RLU, fluorescence trace” value (Time (s) 68.781 (TCA, TLCA: 68.782)) was 265.03 RLU, the “RLU, fluorescence trace” value (Time (s) 70.781 (TCA, TLCA: 70.782)) was 284.572 RLU and the “RLU, fluorescence trace” value (Time (s) 72.781 (TCA, TLCA: 72.782)) was 284.878 RLU. The “RLU, fluorescence trace” value (Time (s) 74.781 (TCA, TLCA: 74.782)) was 290.176 RLU, the “RLU, fluorescence trace” value (Time (s) 76.781 (TCA, TLCA: 76.782)) was 292.885 RLU and the “RLU, fluorescence trace” value (Time (s) 78.781 (TCA, TLCA: 78.782)) was 302.496 RLU. The “RLU, fluorescence trace” value (Time (s) 80.781 (TCA, TLCA: 80.782)) was 299.577 RLU, the “RLU, fluorescence trace” value (Time (s) 82.781 (TCA, TLCA: 82.782)) was 289.637 RLU and the “RLU, fluorescence trace” value (Time (s) 84.781 (TCA, TLCA: 84.782)) was 284.791 RLU. For the same molecule, the “RLU, fluorescence trace” value (Time (s) 86.781 (TCA, TLCA: 86.782)) was 284.228 RLU, the “RLU, fluorescence trace” value (Time (s) 88.781 (TCA, TLCA: 88.782)) was 289.096 RLU and the “RLU, fluorescence trace” value (Time (s) 90.781 (TCA, TLCA: 90.782)) was 288.658 RLU. For the same molecule, the “RLU, fluorescence trace” value (Time (s) 92.781 (TCA, TLCA: 92.782)) was 295.597 RLU, the “RLU, fluorescence trace” value (Time (s) 94.781 (TCA, TLCA: 94.782)) was 300.252 RLU and the “RLU, fluorescence trace” value (Time (s) 96.781 (TCA, TLCA: 96.782)) was 303.134 RLU. For the same molecule, the “RLU, fluorescence trace” value (Time (s) 98.781 (TCA, TLCA: 98.782)) was 268.467 RLU, the “RLU, fluorescence trace” value (Time (s) 100.781 (TCA, TLCA: 100.782)) was 282.827 RLU and the “RLU, fluorescence trace” value (Time (s) 102.781 (TCA, TLCA: 102.782)) was 280.287 RLU. The “RLU, fluorescence trace” value (Time (s) 104.781 (TCA, TLCA: 104.782)) was 297.596 RLU, the “RLU, fluorescence trace” value (Time (s) 106.781 (TCA, TLCA: 106.782)) was 261.785 RLU and the “RLU, fluorescence trace” value (Time (s) 108.781 (TCA, TLCA: 108.782)) was 279.776 RLU. The “RLU, fluorescence trace” value (Time (s) 110.781 (TCA, TLCA: 110.782)) was 253.834 RLU, the “RLU, fluorescence trace” value (Time (s) 112.781 (TCA, TLCA: 112.782)) was 272.21 RLU and the “RLU, fluorescence trace” value (Time (s) 114.781 (TCA, TLCA: 114.782)) was 268.219 RLU. For the same molecule, the “RLU, fluorescence trace” value (Time (s) 116.781 (TCA, TLCA: 116.782)) was 268.998 RLU, the “RLU, fluorescence trace” value (Time (s) 118.781 (TCA, TLCA: 118.782)) was 262.891 RLU and the “RLU, fluorescence trace” value (Time (s) 120.781 (TCA, TLCA: 120.782)) was 267.293 RLU. For the same molecule, the “RLU, fluorescence trace” value (Time (s) 122.781 (TCA, TLCA: 122.782)) was 280.896 RLU, the “RLU, fluorescence trace” value (Time (s) 124.781 (TCA, TLCA: 124.782)) was 273.898 RLU and the “RLU, fluorescence trace” value (Time (s) 126.781 (TCA, TLCA: 126.782)) was 249.374 RLU. The “RLU, fluorescence trace” value (Time (s) 128.781 (TCA, TLCA: 128.782)) was 270.269 RLU, the “RLU, fluorescence trace” value (Time (s) 130.781 (TCA, TLCA: 130.782)) was 267.674 RLU and the “RLU, fluorescence trace” value (Time (s) 132.781 (TCA, TLCA: 132.782)) was 259.914 RLU. For the same molecule, the “RLU, fluorescence trace” value (Time (s) 134.781 (TCA, TLCA: 134.782)) was 243.112 RLU, the “RLU, fluorescence trace” value (Time (s) 136.781 (TCA, TLCA: 136.782)) was 250.545 RLU and the “RLU, fluorescence trace” value (Time (s) 137.547) was 251.257 RLU. The “RLU, fluorescence trace” value (Time (s) 143.547) was 215.734 RLU, the “RLU, fluorescence trace” value (Time (s) 149.547) was 237.866 RLU and the “RLU, fluorescence trace” value (Time (s) 155.547) was 193.672 RLU. The “RLU, fluorescence trace” value (Time (s) 161.547) was 207.578 RLU, the “RLU, fluorescence trace” value (Time (s) 167.547) was 205.902 RLU and the “RLU, fluorescence trace” value (Time (s) 173.547) was 204.036 RLU. The “RLU, fluorescence trace” value (Time (s) 179.547) was 180.442 RLU, the “RLU, fluorescence trace” value (Time (s) 185.547) was 185.763 RLU and the “RLU, fluorescence trace” value (Time (s) 191.547) was 137.563 RLU. For the same molecule, the “RLU, fluorescence trace” value (Time (s) 197.547) was 147.254 RLU, the “RLU, fluorescence trace” value (Time (s) 203.547) was 133.472 RLU and the “RLU, fluorescence trace” value (Time (s) 209.547) was 90.5191 RLU. For the same molecule, the “RLU, fluorescence trace” value (Time (s) 215.547) was 65.3811 RLU, the “RLU, fluorescence trace” value (Time (s) 221.547) was 77.9879 RLU and the “RLU, fluorescence trace” value (Time (s) 227.547) was 99.7214 RLU. The “RLU, fluorescence trace” value (Time (s) 233.547) was 126.783 RLU, the “RLU, fluorescence trace” value (Time (s) 239.547) was 132.165 RLU and the “RLU, fluorescence trace” value (Time (s) 245.547) was 104.275 RLU. For the same molecule, the “RLU, fluorescence trace” value (Time (s) 293.547) was 136.191 RLU, the “RLU, fluorescence trace” value (Time (s) 299.547) was 118.82 RLU and the “RLU, fluorescence trace” value (Time (s) 305.547) was 140.647 RLU. For the same molecule, the “RLU, fluorescence trace” value (Time (s) 311.547) was 122.148 RLU, the “RLU, fluorescence trace” value (Time (s) 317.547) was 88.8315 RLU and the “RLU, fluorescence trace” value (Time (s) 323.547) was 111.642 RLU. The “RLU, fluorescence trace” value (Time (s) 329.547) was 124.756 RLU, the “RLU, fluorescence trace” value (Time (s) 335.547) was 109.477 RLU and the “RLU, fluorescence trace” value (Time (s) 341.547) was 98.825 RLU. For the same molecule, the “RLU, fluorescence trace” value (Time (s) 347.547) was 92.346 RLU, the “RLU, fluorescence trace” value (Time (s) 353.547) was 124.878 RLU and the “RLU, fluorescence trace” value (Time (s) 359.547) was 119.545 RLU. The “Activation threshold concentration TAS2R4” value (lowest concentration with significantly increased fluorescence vs empty vector (p < 0.01)) was 1 µM.
